Laboratory results as given in US5763404A, “Methods for using LHRH antagonists with low histamine release” (priority 1995, dated 1998).
Starred links: 1 amine or outer side, 2 acyl side, 3 side chain; linkers in the order of their positions; H or OH if unused. Non-standard residues stand in square brackets, D forms with d. Residues, ends and D or L forms follow the SMILES beside them. *: point of attachment. dAla(cis-4-NHCOPyz-cHex) = N[C@H](C[C@H]1CC[C@@H](NC(=O)c2cnccn2)CC1)C(=O)O; X8 = O=C(N[C@H]1CC[C@@H](C[C@@H](N[*:1])C(=O)[*:2])CC1)c1ccncn1; X2 = O=C(N[C@H]1CC[C@@H](C[C@H](N[*:1])C(=O)[*:2])CC1)c1cnccn1; dPhe(4-Cl) = N[C@H](Cc1ccc(Cl)cc1)C(=O)O; X10 = O=C([C@@H](Cc1cnccn1)N[*:1])[*:2]; d2Nal = N[C@H](Cc1ccc2ccccc2c1)C(=O)O; X11 = O=C([C@H](N[*:1])c1ccsc1)[*:2]; Lys(iPr) = CC(C)NCCCC[C@H](N)C(=O)O; Orn(iPr) = CC(C)NCCC[C@H](N)C(=O)O; Benzoyl(4-OH) = O=C(c1ccc(O)cc1)*; d3Pal = N[C@H](Cc1cccnc1)C(=O)O; Cit = NC(=O)NCCC[C@H](N)C(=O)O; NMeL = CN[C@@H](CC(C)C)C(=O)O; Nicotinoyl = O=C(c1cccnc1)*; Picolinoyl = O=C(c1ccccn1)*; Abu = CC[C@H](N)C(=O)O

Each compound was assayed on anaesthesized rats (assay: wheal test, intradermal injection). Conditions: 10 ug peptide intradermally.
Type: in vivo, rat
Design: Wheal (wheal response): unit not given here
Summary of the method: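 Anaesthetized rats given intradermal injection of 10 ug peptide in 100 ul saline; area of the wheal calculated from its diameter.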

| SMILES | Wheal Area [mm^2 /10 μg] |
| --- | --- |
| CC(=O)N[C@H](Cc1ccc2ccccc2c1)C(=O)N[C@H](Cc1ccc(Cl)cc1)C(=O)N[C@H](Cc1cccnc1)C(=O)N[C@@H](CO)C(=O)N[C@@H](CCCCNC(=O)c1ccccn1)C(=O)N[C@H](C[C@H]1CC[C@@H](NC(=O)c2ccncn2)CC1)C(=O)N[C@@H](CC(C)C)C(=O)N[C@@H](CCCCNC(C)C)C(=O)N1CCC[C@H]1C(=O)N[C@H](C)C(N)=O [compound 26323] (Ac-[d2Nal][dPhe(4-Cl)][d3Pal]SK(Picolinoyl)[X8]L[Lys(iPr)]P[dA]-NH2) | 120.4 ± 4.7 |
| CC(=O)N[C@H](Cc1ccc2ccccc2c1)C(=O)N[C@H](Cc1ccc(Cl)cc1)C(=O)N[C@H](Cc1cccnc1)C(=O)N[C@@H](CO)C(=O)N[C@@H](CCCCNC(=O)c1ccccn1)C(=O)N[C@H](C[C@H]1CC[C@@H](NC(=O)c2cnccn2)CC1)C(=O)N[C@H](C(=O)N[C@@H](CCCCNC(C)C)C(=O)N1CCC[C@H]1C(=O)N[C@H](C)C(N)=O)C(C)C [compound 26325] (Ac-[d2Nal][dPhe(4-Cl)][d3Pal]SK(Picolinoyl)[dAla(cis-4-NHCOPyz-cHex)]V[Lys(iPr)]P[dA]-NH2) | 127.8 ± 4.9 |
| CC(=O)N[C@H](Cc1ccc2ccccc2c1)C(=O)N[C@H](Cc1ccc(Cl)cc1)C(=O)N[C@H](Cc1cccnc1)C(=O)N[C@@H](CO)C(=O)N[C@@H](C[C@H]1CC[C@@H](NC(=O)c2cnccn2)CC1)C(=O)N[C@H](C[C@H]1CC[C@@H](NC(=O)c2cnccn2)CC1)C(=O)N[C@@H](CC(C)C)C(=O)N[C@@H](CCCCNC(C)C)C(=O)N1CCC[C@H]1C(=O)N[C@H](C)C(N)=O [compound 26326] (Ac-[d2Nal][dPhe(4-Cl)][d3Pal]S[X2][dAla(cis-4-NHCOPyz-cHex)]L[Lys(iPr)]P[dA]-NH2) | 115.5 ± 2.4 |
| CC(=O)N[C@H](Cc1ccc2ccccc2c1)C(=O)N[C@H](Cc1ccc(Cl)cc1)C(=O)N[C@H](Cc1cccnc1)C(=O)N[C@@H](CO)C(=O)N[C@@H](CCCCNC(=O)c1cccnc1)C(=O)N[C@H](CCCCNC(=O)c1cccnc1)C(=O)N(C)[C@@H](CC(C)C)C(=O)N[C@@H](CCCCNC(C)C)C(=O)N1CCC[C@H]1C(=O)N[C@H](C)C(N)=O [compound 26345] (Ac-[d2Nal][dPhe(4-Cl)][d3Pal]SK(Nicotinoyl)[dK](Nicotinoyl)[NMeL][Lys(iPr)]P[dA]-NH2) | 110.5 ± 11.4 |
| CC[C@H](NC(=O)[C@@H](CCCCNC(=O)c1ccccn1)NC(=O)[C@H](CCCCNC(=O)c1ccccn1)NC(=O)[C@H](CO)NC(=O)[C@@H](Cc1cccnc1)NC(=O)[C@@H](Cc1ccc(Cl)cc1)NC(=O)[C@@H](Cc1ccc2ccccc2c1)NC(C)=O)C(=O)N[C@@H](CCCNC(=N)N)C(=O)N1CCC[C@H]1C(=O)N[C@H](C)C(N)=O [compound 26346] (Ac-[d2Nal][dPhe(4-Cl)][d3Pal]SK(Picolinoyl)[dK](Picolinoyl)[Abu]RP[dA]-NH2) | 113.2 ± 5.4 |
| CC(=O)N[C@H](Cc1ccc2ccccc2c1)C(=O)N[C@H](Cc1ccc(Cl)cc1)C(=O)N[C@H](Cc1cccnc1)C(=O)N[C@@H](CO)C(=O)N[C@@H](CCCCNC(=O)c1ccccn1)C(=O)N[C@H](C[C@H]1CC[C@@H](NC(=O)c2cnccn2)CC1)C(=O)N[C@@H](CC(C)C)C(=O)N[C@@H](CCCNC(=N)N)C(=O)N1CCC[C@H]1C(=O)N[C@H](C)C(N)=O [compound 26347] (Ac-[d2Nal][dPhe(4-Cl)][d3Pal]SK(Picolinoyl)[dAla(cis-4-NHCOPyz-cHex)]LRP[dA]-NH2) | 119.6 ± 8.5 |
| CC(=O)N[C@H](Cc1ccc2ccccc2c1)C(=O)N[C@H](Cc1ccc(Cl)cc1)C(=O)N[C@H](Cc1cccnc1)C(=O)N[C@@H](CO)C(=O)N[C@@H](CCCCNC(=O)c1ccccn1)C(=O)N[C@H](C[C@H]1CC[C@@H](NC(=O)c2cnccn2)CC1)C(=O)N[C@@H](CC(C)C)C(=O)N[C@@H](CCCCNC(C)C)C(=O)N1CCC[C@H]1C(=O)N[C@H](CO)C(N)=O [compound 26348] (Ac-[d2Nal][dPhe(4-Cl)][d3Pal]SK(Picolinoyl)[dAla(cis-4-NHCOPyz-cHex)]L[Lys(iPr)]P[dS]-NH2) | 122.8 ± 5.7 |
| CC(=O)N[C@H](Cc1ccc2ccccc2c1)C(=O)N[C@H](Cc1ccc(Cl)cc1)C(=O)N[C@@H](C(=O)N[C@@H](CO)C(=O)N[C@@H](CCCCNC(=O)c1ccccn1)C(=O)N[C@H](C[C@H]1CC[C@@H](NC(=O)c2cnccn2)CC1)C(=O)N[C@@H](CC(C)C)C(=O)N[C@@H](CCCCNC(C)C)C(=O)N1CCC[C@H]1C(=O)N[C@H](C)C(N)=O)c1ccsc1 [compound 26349] (Ac-[d2Nal][dPhe(4-Cl)][X11]SK(Picolinoyl)[dAla(cis-4-NHCOPyz-cHex)]L[Lys(iPr)]P[dA]-NH2) | 84.6 ± 3.9 |
| CC(=O)N[C@H](Cc1ccc2ccccc2c1)C(=O)N[C@H](Cc1ccc(Cl)cc1)C(=O)N[C@H](Cc1cccnc1)C(=O)N[C@@H](CO)C(=O)N[C@@H](Cc1ccc(O)cc1)C(=O)N[C@H](CCCCNC(=O)c1ccccn1)C(=O)N[C@@H](CC(C)C)C(=O)N[C@@H](CCCNC(C)C)C(=O)N1CCC[C@H]1C(=O)N[C@H](C)C(N)=O [compound 26363] (Ac-[d2Nal][dPhe(4-Cl)][d3Pal]SY[dK](Picolinoyl)L[Orn(iPr)]P[dA]-NH2) | 113.2 ± 5.5 |
| CC(=O)N[C@H](Cc1ccc2ccccc2c1)C(=O)N[C@H](Cc1cccnc1)C(=O)N[C@H](Cc1ccc(Cl)cc1)C(=O)N[C@@H](CO)C(=O)N[C@@H](CCCCNC(=O)c1ccccn1)C(=O)N[C@H](CCCCNC(=O)c1ccccn1)C(=O)N[C@@H](CC(C)C)C(=O)N[C@@H](CCCNC(C)C)C(=O)N1CCC[C@H]1C(=O)N[C@H](C)C(N)=O [compound 26364] (Ac-[d2Nal][d3Pal][dPhe(4-Cl)]SK(Picolinoyl)[dK](Picolinoyl)L[Orn(iPr)]P[dA]-NH2) | 116.2 ± 5.5 |
| CC(=O)N[C@H](Cc1ccc2ccccc2c1)C(=O)N[C@H](Cc1ccc(Cl)cc1)C(=O)N[C@H](Cc1cccnc1)C(=O)N[C@@H](CO)C(=O)N[C@@H](Cc1ccc(O)cc1)C(=O)N[C@H](C[C@H]1CC[C@@H](NC(=O)c2cnccn2)CC1)C(=O)N[C@@H](CC(C)C)C(=O)N[C@@H](CCCCNC(C)C)C(=O)N1CCC[C@H]1C(=O)N[C@H](CO)C(N)=O [compound 26365] (Ac-[d2Nal][dPhe(4-Cl)][d3Pal]SY[dAla(cis-4-NHCOPyz-cHex)]L[Lys(iPr)]P[dS]-NH2) | 129.4 ± 3.3 |
| CC(=O)N[C@H](Cc1ccc2ccccc2c1)C(=O)N[C@H](Cc1ccc(Cl)cc1)C(=O)N[C@H](Cc1cccnc1)C(=O)N[C@@H](CO)C(=O)N[C@@H](CCCCNC(=O)c1ccccn1)C(=O)N[C@H](C[C@H]1CC[C@@H](NC(=O)c2cnccn2)CC1)C(=O)N[C@@H](Cc1ccccc1)C(=O)N[C@@H](CCCCNC(C)C)C(=O)N1CCC[C@H]1C(=O)N[C@H](C)C(N)=O [compound 26366] (Ac-[d2Nal][dPhe(4-Cl)][d3Pal]SK(Picolinoyl)[dAla(cis-4-NHCOPyz-cHex)]F[Lys(iPr)]P[dA]-NH2) | 116.2 ± 3.2 |
| CC[C@H](NC(=O)[C@@H](CCCCNC(=O)c1ccccn1)NC(=O)[C@H](CCCCNC(=O)c1ccc(O)cc1)NC(=O)[C@H](CO)NC(=O)[C@@H](Cc1cccnc1)NC(=O)[C@@H](Cc1ccc(Cl)cc1)NC(=O)[C@@H](Cc1ccc2ccccc2c1)NC(C)=O)C(=O)N[C@@H](CCCCNC(C)C)C(=O)N1CCC[C@H]1C(=O)N[C@H](C)C(N)=O [compound 26381] (Ac-[d2Nal][dPhe(4-Cl)][d3Pal]SK(Benzoyl(4-OH))[dK](Picolinoyl)[Abu][Lys(iPr)]P[dA]-NH2) | 95.1 ± 5.0 |
| CC[C@H](NC(=O)[C@@H](CCCCNC(=O)c1ccccn1)NC(=O)[C@H](CCCNC(N)=O)NC(=O)[C@H](CO)NC(=O)[C@@H](Cc1cccnc1)NC(=O)[C@@H](Cc1ccc(Cl)cc1)NC(=O)[C@@H](Cc1ccc2ccccc2c1)NC(C)=O)C(=O)N[C@@H](CCCCNC(C)C)C(=O)N1CCC[C@H]1C(=O)N[C@H](C)C(N)=O [compound 26382] (Ac-[d2Nal][dPhe(4-Cl)][d3Pal]S[Cit][dK](Picolinoyl)[Abu][Lys(iPr)]P[dA]-NH2) | 89.5 ± 5.5 |
| CCNC(=O)[C@@H]1CCCN1C(=O)[C@H](CCCCNC(C)C)NC(=O)[C@H](CC(C)C)NC(=O)[C@@H](C[C@H]1CC[C@@H](NC(=O)c2cnccn2)CC1)NC(=O)[C@H](CCCCNC(=O)c1ccccn1)NC(=O)[C@H](CO)NC(=O)[C@@H](Cc1cccnc1)NC(=O)[C@@H](Cc1ccc(Cl)cc1)NC(=O)[C@@H](Cc1ccc2ccccc2c1)NC(C)=O [compound 26383] (Ac-[d2Nal][dPhe(4-Cl)][d3Pal]SK(Picolinoyl)[dAla(cis-4-NHCOPyz-cHex)]L[Lys(iPr)]P-NHEt) | 119.6 ± 6.6 |
| CC(=O)N[C@H](Cc1ccc2ccccc2c1)C(=O)N[C@H](Cc1ccc(Cl)cc1)C(=O)N[C@H](Cc1cccnc1)C(=O)N[C@@H](CO)C(=O)N[C@@H](C[C@H]1CC[C@@H](NC(=O)c2cnccn2)CC1)C(=O)N[C@H](Cc1cnccn1)C(=O)N[C@@H](CC(C)C)C(=O)N[C@@H](CCCNC(=N)N)C(=O)N1CCC[C@H]1C(=O)N[C@H](C)C(N)=O [compound 26417] (Ac-[d2Nal][dPhe(4-Cl)][d3Pal]S[X2][X10]LRP[dA]-NH2) | 133.2 ± 11.8 |
| CC(=O)N[C@H](Cc1ccc2ccccc2c1)C(=O)N[C@H](Cc1ccc(Cl)cc1)C(=O)N[C@H](Cc1cccnc1)C(=O)N[C@@H](CO)C(=O)N[C@@H](Cc1ccc(O)cc1)C(=O)N[C@H](C[C@H]1CC[C@@H](NC(=O)c2cnccn2)CC1)C(=O)N[C@@H](CC(C)C)C(=O)N[C@@H](CCCCNC(C)C)C(=O)N1CCC[C@H]1C(=O)N[C@H](C)C(N)=O [compound 26418] (Ac-[d2Nal][dPhe(4-Cl)][d3Pal]SY[dAla(cis-4-NHCOPyz-cHex)]L[Lys(iPr)]P[dA]-NH2) | 95.0 ± 0 |

Same assay, conditions: Table XIV and text, unit not given

| SMILES | Wheal (wheal response) |
| --- | --- |
| CC(=O)N[C@H](Cc1ccc2ccccc2c1)C(=O)N[C@H](Cc1ccc(Cl)cc1)C(=O)N[C@H](Cc1cccnc1)C(=O)N[C@@H](CO)C(=O)N[C@@H](CCCCNC(=O)c1ccccn1)C(=O)N[C@H](C[C@H]1CC[C@@H](NC(=O)c2cnccn2)CC1)C(=O)N[C@H](C(=O)N[C@@H](CCCCNC(C)C)C(=O)N1CCC[C@H]1C(=O)N[C@H](C)C(N)=O)C(C)C [compound 26325] (Ac-[d2Nal][dPhe(4-Cl)][d3Pal]SK(Picolinoyl)[dAla(cis-4-NHCOPyz-cHex)]V[Lys(iPr)]P[dA]-NH2) | 127.8 ± 4.9 |
| CC(=O)N[C@H](Cc1ccc2ccccc2c1)C(=O)N[C@H](Cc1ccc(Cl)cc1)C(=O)N[C@H](Cc1cccnc1)C(=O)N[C@@H](CO)C(=O)N[C@@H](C[C@H]1CC[C@@H](NC(=O)c2cnccn2)CC1)C(=O)N[C@H](C[C@H]1CC[C@@H](NC(=O)c2cnccn2)CC1)C(=O)N[C@@H](CC(C)C)C(=O)N[C@@H](CCCCNC(C)C)C(=O)N1CCC[C@H]1C(=O)N[C@H](C)C(N)=O [compound 26326] (Ac-[d2Nal][dPhe(4-Cl)][d3Pal]S[X2][dAla(cis-4-NHCOPyz-cHex)]L[Lys(iPr)]P[dA]-NH2) | 115.5 ± 2.4 |
| CC[C@H](NC(=O)[C@@H](CCCCNC(=O)c1ccccn1)NC(=O)[C@H](CCCCNC(=O)c1ccccn1)NC(=O)[C@H](CO)NC(=O)[C@@H](Cc1cccnc1)NC(=O)[C@@H](Cc1ccc(Cl)cc1)NC(=O)[C@@H](Cc1ccc2ccccc2c1)NC(C)=O)C(=O)N[C@@H](CCCNC(=N)N)C(=O)N1CCC[C@H]1C(=O)N[C@H](C)C(N)=O [compound 26346] (Ac-[d2Nal][dPhe(4-Cl)][d3Pal]SK(Picolinoyl)[dK](Picolinoyl)[Abu]RP[dA]-NH2) | 113.2 ± 5.4 |
